# According to ChEMBL document CHEMBL3396981, “Synthesis and in vitro biological evaluation of 2-(phenylcarbamoyl)phenyl 4-substituted benzoates” (Bioorg Med Chem, 2015):
# Key:
# [1] = test system: Mycobacterium tuberculosis; assay: Antimycobacterial activity against Mycobacterium tuberculosis H37Rv 331/88 after 14 days by microdilution method; format: functional; conditions: H37Rv 331/88, 336 h
# [2] = test system: Mycobacterium tuberculosis; assay: Antimycobacterial activity against Mycobacterium tuberculosis H37Rv 331/88 after 21 days by microdilution method; format: functional; conditions: H37Rv 331/88, 504 h
# Mycobacterium avium [3] = assay: Antimycobacterial activity against INH,RIF,OFX,EMB-resistant Mycobacterium avium 330/88 after 14 days by microdilution method; format: functional; conditions: 330/88, 336 h
# Mycobacterium avium [4] = assay: Antimycobacterial activity against INH,RIF,OFX,EMB-resistant Mycobacterium avium 330/88 after 21 days by microdilution method; format: functional; conditions: 330/88, 504 h
# Mycobacterium kansasii [5] = assay: Antimycobacterial activity against Mycobacterium kansasii 235/80 after 7 days by microdilution method; format: functional; conditions: 235/80, 168 h
# Mycobacterium kansasii [6] = assay: Antimycobacterial activity against Mycobacterium kansasii 235/80 after 14 days by microdilution method; format: functional; conditions: 235/80, 336 h
# Mycobacterium kansasii [7] = assay: Antimycobacterial activity against Mycobacterium kansasii 235/80 after 21 days by microdilution method; format: functional; conditions: 235/80, 504 h
# Mycobacterium kansasii [8] = assay: Antimycobacterial activity against Mycobacterium kansasii 6509/96 after 7 days by microdilution method; format: functional; conditions: 6509/96, 168 h
# Mycobacterium kansasii [9] = assay: Antimycobacterial activity against Mycobacterium kansasii 6509/96 after 14 days by microdilution method; format: functional; conditions: 6509/96, 336 h
# Mycobacterium kansasii [10] = assay: Antimycobacterial activity against Mycobacterium kansasii 6509/96 after 21 days by microdilution method; format: functional; conditions: 6509/96, 504 h
# [11] = Selectivity index, ratio of IC50 for human HepG2 cells to MIC for Mycobacterium tuberculosis; format: toxicity, cell-based; conditions: read-out: Selectivity Index
# [12] = Selectivity index, ratio of IC50 for human HepG2 cells to MIC for atypical mycobacteria
# HepG2 [13] = assay: Cytostatic activity against human HepG2 cells after 72 hrs by MTT assay; format: functional, cell-based; conditions: HepG2, 72 h
# HepG2 [14] = assay: Cytotoxicity against human HepG2 cells after 72 hrs by MTT assay; format: cell-based; conditions: HepG2, 72 h
smiles,measurement,setting,value
O=C(Oc1ccc(Br)cc1C(=O)Nc1ccc(C(F)(F)F)cc1)c1ccccc1,MIC,[1],1 µM
same,MIC,[2],1 µM
same,MIC,Mycobacterium avium [3],4 µM
same,MIC,Mycobacterium avium [4],4 µM
same,MIC,Mycobacterium kansasii [5],2 µM
same,MIC,Mycobacterium kansasii [6],2 µM
same,MIC,Mycobacterium kansasii [7],2 µM
same,MIC,Mycobacterium kansasii [8],2 µM
same,MIC,Mycobacterium kansasii [9],2 µM
same,MIC,Mycobacterium kansasii [10],2 µM
O=C(Nc1ccc(C(F)(F)F)cc1)c1cc(Cl)ccc1O,MIC,[1],2 µM
same,MIC,[2],2 µM
same,MIC,Mycobacterium avium [3],8 µM
same,MIC,Mycobacterium avium [4],8 µM
same,MIC,Mycobacterium kansasii [5],1 µM
same,MIC,Mycobacterium kansasii [6],2 µM
same,MIC,Mycobacterium kansasii [7],2 µM
same,MIC,Mycobacterium kansasii [8],2 µM
same,MIC,Mycobacterium kansasii [9],2 µM
same,MIC,Mycobacterium kansasii [10],2 µM
O=C(Nc1ccc(Cl)c(Cl)c1)c1cc(Cl)ccc1O,MIC,[1],4 µM
same,MIC,[2],8 µM
same,MIC,Mycobacterium avium [3],32 µM
same,MIC,Mycobacterium avium [4],32 µM
same,MIC,Mycobacterium kansasii [5],4 µM
same,MIC,Mycobacterium kansasii [6],8 µM
same,MIC,Mycobacterium kansasii [7],8 µM
same,MIC,Mycobacterium kansasii [8],8 µM
same,MIC,Mycobacterium kansasii [9],8 µM
same,MIC,Mycobacterium kansasii [10],8 µM
Nc1ccc(C(=O)O)c(O)c1 [AMINOSALICYLIC ACID],MIC,[1],62.5 µM
same,MIC,[2],62.5 µM
same,MIC,Mycobacterium avium [3],32 µM
same,MIC,Mycobacterium avium [4],125 µM
same,MIC,Mycobacterium kansasii [5],125 µM
same,MIC,Mycobacterium kansasii [6],1000 µM
same,MIC,Mycobacterium kansasii [7],> 1000 µM
same,MIC,Mycobacterium kansasii [8],32 µM
same,MIC,Mycobacterium kansasii [9],125 µM
same,MIC,Mycobacterium kansasii [10],500 µM
same,selectivity ratio,[11],35.8
same,Selectivity Index,[12],<2.2
O=C(Oc1ccc(Cl)cc1C(=O)Nc1ccc(C(F)(F)F)cc1)c1ccc(Br)cc1,MIC,[1],1 µM
same,MIC,[2],1 µM
same,MIC,Mycobacterium avium [3],4 µM
same,MIC,Mycobacterium avium [4],4 µM
same,MIC,Mycobacterium kansasii [5],0.5 µM
same,MIC,Mycobacterium kansasii [6],1 µM
same,MIC,Mycobacterium kansasii [7],1 µM
same,MIC,Mycobacterium kansasii [8],1 µM
same,MIC,Mycobacterium kansasii [9],2 µM
same,MIC,Mycobacterium kansasii [10],2 µM
same,IC50,HepG2 [13],14.5 µM
same,IC50,HepG2 [14],> 50 µM
same,selectivity ratio,[11],> 50
same,Selectivity Index,[12],>12.5
O=C(Nc1ccc(C(F)(F)F)cc1)c1cc(Br)ccc1O,MIC,[1],1 µM
same,MIC,[2],1 µM
same,MIC,Mycobacterium avium [3],2 µM
same,MIC,Mycobacterium avium [4],2 µM
same,MIC,Mycobacterium kansasii [5],2 µM
same,MIC,Mycobacterium kansasii [6],2 µM
same,MIC,Mycobacterium kansasii [7],4 µM
same,MIC,Mycobacterium kansasii [8],2 µM
same,MIC,Mycobacterium kansasii [9],4 µM
same,MIC,Mycobacterium kansasii [10],4 µM
O=C(Oc1ccc(Cl)cc1C(=O)Nc1ccc(Cl)c(Cl)c1)c1ccccc1,MIC,[1],1 µM
same,MIC,[2],1 µM
same,MIC,Mycobacterium avium [3],8 µM
same,MIC,Mycobacterium avium [4],8 µM
same,MIC,Mycobacterium kansasii [5],2 µM
same,MIC,Mycobacterium kansasii [6],4 µM
same,MIC,Mycobacterium kansasii [7],4 µM
same,MIC,Mycobacterium kansasii [8],1 µM
same,MIC,Mycobacterium kansasii [9],2 µM
same,MIC,Mycobacterium kansasii [10],2 µM
O=C(Oc1ccc(Br)cc1C(=O)Nc1ccc(C(F)(F)F)cc1)c1ccc(Br)cc1,MIC,[1],1 µM
same,MIC,[2],1 µM
same,MIC,Mycobacterium avium [3],8 µM
same,MIC,Mycobacterium avium [4],8 µM
same,MIC,Mycobacterium kansasii [5],1 µM
same,MIC,Mycobacterium kansasii [6],2 µM
same,MIC,Mycobacterium kansasii [7],4 µM
same,MIC,Mycobacterium kansasii [8],4 µM
same,MIC,Mycobacterium kansasii [9],4 µM
same,MIC,Mycobacterium kansasii [10],4 µM
same,IC50,HepG2 [13],4.2 µM
same,IC50,HepG2 [14],> 50 µM
same,selectivity ratio,[11],> 50
same,Selectivity Index,[12],>6.25
O=C(Oc1ccc(Br)cc1C(=O)Nc1ccc(C(F)(F)F)cc1)c1ccc(C(F)(F)F)cc1,MIC,[1],1 µM
same,MIC,[2],1 µM
same,MIC,Mycobacterium avium [3],2 µM
same,MIC,Mycobacterium avium [4],4 µM
same,MIC,Mycobacterium kansasii [5],1 µM
same,MIC,Mycobacterium kansasii [6],2 µM
same,MIC,Mycobacterium kansasii [7],4 µM
same,MIC,Mycobacterium kansasii [8],1 µM
same,MIC,Mycobacterium kansasii [9],2 µM
same,MIC,Mycobacterium kansasii [10],4 µM
O=C(Oc1ccc(Cl)cc1C(=O)Nc1ccc(C(F)(F)F)cc1)c1ccc(C(F)(F)F)cc1,MIC,[1],1 µM
same,MIC,[2],1 µM
same,MIC,Mycobacterium avium [3],1 µM
same,MIC,Mycobacterium avium [4],4 µM
same,MIC,Mycobacterium kansasii [5],1 µM
same,MIC,Mycobacterium kansasii [6],2 µM
same,MIC,Mycobacterium kansasii [7],4 µM
same,MIC,Mycobacterium kansasii [8],1 µM
same,MIC,Mycobacterium kansasii [9],2 µM
same,MIC,Mycobacterium kansasii [10],4 µM
O=C(Oc1ccc(Cl)cc1C(=O)Nc1ccc(C(F)(F)F)cc1)c1ccccc1,MIC,[1],0.5 µM
same,MIC,[2],1 µM
same,MIC,Mycobacterium avium [3],4 µM
same,MIC,Mycobacterium avium [4],4 µM
same,MIC,Mycobacterium kansasii [5],1 µM
same,MIC,Mycobacterium kansasii [6],1 µM
same,MIC,Mycobacterium kansasii [7],1 µM
same,MIC,Mycobacterium kansasii [8],2 µM
same,MIC,Mycobacterium kansasii [9],2 µM
same,MIC,Mycobacterium kansasii [10],2 µM
O=C(Oc1ccc(Cl)cc1C(=O)Nc1ccc(Cl)c(Cl)c1)c1ccc(C(F)(F)F)cc1,MIC,[1],1 µM
same,MIC,[2],1 µM
same,MIC,Mycobacterium avium [3],4 µM
same,MIC,Mycobacterium avium [4],4 µM
same,MIC,Mycobacterium kansasii [5],1 µM
same,MIC,Mycobacterium kansasii [6],2 µM
same,MIC,Mycobacterium kansasii [7],4 µM
same,MIC,Mycobacterium kansasii [8],1 µM
same,MIC,Mycobacterium kansasii [9],2 µM
same,MIC,Mycobacterium kansasii [10],4 µM
